Values after ≈ are worked out from the molar mass of the structure shown.
Legend:
PAMPA permeability = format: in vitro ADME; conditions: pH 7.4
[1] = Cytotoxicity in THLE-2 cells (ATP); format: cell-based; conditions: human; THLE-2, 72 h exposure; read-out: LC50
JMJD3 = target: T1, JMJD3 (Homo sapiens, UniProt O15054); assay: Epigenetics selectivity panel (BPS Bioscience); format: biochemical
T1 construct: purchased DiscoverX KINOMEscan (kinases); BPS Bioscience (epigenetic targets)

1205-LU = assay: Cell proliferation assay (MTS); format: cell-based; conditions: Homo sapiens, Melanoma
SETD2 = target: T2, SETD2 (Homo sapiens, UniProt Q9BYW2); assay: Epigenetics selectivity panel (BPS Bioscience); format: biochemical
T2 construct: purchased DiscoverX KINOMEscan (kinases); BPS Bioscience (epigenetic targets)

cytochrome P450 1A2 = target: T3, cytochrome P450 1A2 (Homo sapiens, UniProt P05177); assay: CYP inhibition in human liver microsomes; format: in vitro ADME; conditions: 10 µM
T3 construct: tissue BD Gentest; host or cells: human liver microsomes
T3 sequence (P05177 whole entry): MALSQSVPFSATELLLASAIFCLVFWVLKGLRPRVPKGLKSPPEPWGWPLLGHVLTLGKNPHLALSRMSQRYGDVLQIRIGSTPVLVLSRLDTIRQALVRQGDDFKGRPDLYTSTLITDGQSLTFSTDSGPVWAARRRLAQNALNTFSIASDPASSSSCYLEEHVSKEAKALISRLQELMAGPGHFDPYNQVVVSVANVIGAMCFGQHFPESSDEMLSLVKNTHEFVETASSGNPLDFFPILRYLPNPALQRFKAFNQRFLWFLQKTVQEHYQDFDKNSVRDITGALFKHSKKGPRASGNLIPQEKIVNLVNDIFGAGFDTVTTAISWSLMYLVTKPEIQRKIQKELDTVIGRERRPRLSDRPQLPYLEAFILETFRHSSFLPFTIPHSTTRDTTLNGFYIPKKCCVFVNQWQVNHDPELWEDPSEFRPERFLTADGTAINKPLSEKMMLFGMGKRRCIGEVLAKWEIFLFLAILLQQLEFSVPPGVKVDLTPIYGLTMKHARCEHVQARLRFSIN
Procedure: Positive control was obtained in the presence of the vehicle of the compounds. Negative control was obtained in the absence of HDAC enzyme activity. A best fit curve was fitted using GraphPad Prism 5 to derive the half maximal inhibitory concentration (IC50) from this curve. Results are the average of two […]
3A4) was evaluated in human liver microsomes at Wuxi (http://www.wuxi.com/). Test compounds (10 µM) and the corresponding substrates for each P450 isoform (20 µL) were incubated with 140 µL liver […]
reaction was terminated by adding 400 µL cold stop solution (200 ng/mL tolbutamide in ACN) and samples were centrifuged at 4000 rpm for 20 minutes. Supernatants were analyzed by LC-MS/MS (Shimadzu LC 20-AD - API 4000), using peak area ratio of analyte/internal standard. Test compounds and positive controls were tested in duplicates. The percentage of inhibition was calculated as the ratio of substrate metabolite detected in treated and non-treated wells.
This study was conducted by Equilibrium Dialysis at Wuxi (http://www.wuxi.com/). HT-Dialysis plate (Model HTD 96 b, Cat# 1006) and the dialysis membrane (molecular weight cut off 12-14 kDa, Cat# 1101) were purchased from HT Dialysis LLC (Gales Ferry, CT). Human plasma and CD-1 mouse plasma from Bioreclamation were thawed prior to experiment and the pH was adjusted at 7.4. […]
Results are the average of three replicates. […]

Jarid1C = target: T4, Jarid1C (Homo sapiens, UniProt P41229); assay: Epigenetics selectivity panel (BPS Bioscience); format: biochemical
T4 construct: purchased DiscoverX KINOMEscan (kinases); BPS Bioscience (epigenetic targets)

SK-MEL-19 = assay: Cell proliferation assay (MTS); format: cell-based; conditions: Homo sapiens, SK-MEL19; Melanoma
JMJD1A = target: T5, JMJD1A (Homo sapiens, UniProt Q9Y4C1); assay: Epigenetics selectivity panel (BPS Bioscience); format: biochemical
T5 construct: purchased DiscoverX KINOMEscan (kinases); BPS Bioscience (epigenetic targets)

HL-60 = assay: Cell proliferation assay (MTS); format: cell-based; conditions: Homo sapiens, AML, 48 h
Human HDAC1 = target: T6, Human HDAC1 (Homo sapiens, UniProt Q13547); assay: HDAC1 enzyme activity assay; format: biochemical
T6 construct: purchased DiscoverX KINOMEscan (kinases); BPS Bioscience (epigenetic targets)
T6 sequence (Q13547 whole entry): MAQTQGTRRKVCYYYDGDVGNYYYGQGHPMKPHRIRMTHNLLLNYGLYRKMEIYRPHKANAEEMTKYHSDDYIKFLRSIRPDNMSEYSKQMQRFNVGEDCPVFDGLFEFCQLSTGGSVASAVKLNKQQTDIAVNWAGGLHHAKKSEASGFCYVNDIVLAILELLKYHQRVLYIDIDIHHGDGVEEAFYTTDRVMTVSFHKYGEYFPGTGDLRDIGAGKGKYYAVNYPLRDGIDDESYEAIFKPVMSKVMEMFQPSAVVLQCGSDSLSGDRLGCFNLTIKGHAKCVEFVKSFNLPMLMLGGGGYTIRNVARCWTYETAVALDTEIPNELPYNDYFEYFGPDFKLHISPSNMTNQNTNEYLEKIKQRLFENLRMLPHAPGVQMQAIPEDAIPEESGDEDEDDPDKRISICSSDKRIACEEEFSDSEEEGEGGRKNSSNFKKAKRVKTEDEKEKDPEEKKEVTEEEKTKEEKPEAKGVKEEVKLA

MY = assay: Cell proliferation assay (MTS); format: cell-based; conditions: Homo sapiens; ALL, 48 h
H460 = assay: Cell proliferation assay (MTS); format: cell-based; conditions: Homo sapiens, NCI-H460; NSCLC
SUV39H1 = target: T7, SUV39H1 (Homo sapiens, UniProt O43463); assay: Epigenetics selectivity panel (BPS Bioscience); format: biochemical
T7 construct: purchased DiscoverX KINOMEscan (kinases); BPS Bioscience (epigenetic targets)
T7 sequence (O43463 whole entry): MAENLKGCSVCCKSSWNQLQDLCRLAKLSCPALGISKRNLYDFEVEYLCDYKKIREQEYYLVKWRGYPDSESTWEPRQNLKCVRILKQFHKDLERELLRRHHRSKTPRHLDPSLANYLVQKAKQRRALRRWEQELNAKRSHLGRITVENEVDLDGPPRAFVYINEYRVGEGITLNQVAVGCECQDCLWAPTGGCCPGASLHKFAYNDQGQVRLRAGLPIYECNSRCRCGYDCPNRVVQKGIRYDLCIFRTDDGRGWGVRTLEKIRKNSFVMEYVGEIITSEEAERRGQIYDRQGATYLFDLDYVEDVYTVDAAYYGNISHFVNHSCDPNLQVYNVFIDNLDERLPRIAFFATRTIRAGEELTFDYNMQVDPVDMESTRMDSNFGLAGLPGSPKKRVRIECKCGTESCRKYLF

NOMO-1 = assay: Cell proliferation assay (MTS); format: cell-based; conditions: Homo sapiens, AML, 48 h
SU8686 = assay: Cell proliferation assay (MTS); format: cell-based; conditions: Homo sapiens, SU.86.86; Pancreas
Kinetic solubility = format: physicochemical; conditions: aqueous buffer, kinetic from dmso stock, pH 7.4, 50 mM phosphate buffer
Procedure: This study was conducted at Wuxi (http://www.wuxi.com/) at pH 7.4 (50 mM phosphate buffer). […]
The pH was adjusted to 7.40±0.05 using either 1 M sodium hydroxide or 1 M hydrochloric acid. Test compounds were diluted to 0.2 mM in DMSO and further diluted prior to testing to 10 µM in PBS, pH 7.4 (final 5% DMSO). The assay was performed using a 96-well multiscreen-IP PAMPA plate (Millipore, Cat. # MAIPN4510), whose PVDF membrane was pre-coated with 5 µL of 1% lecithin/dodecane mixture. 150 µL of PBS solution containing the test compounds were added to the donor chamber. Blank PBS (300 µL) was also added to the PTFE acceptor plate, and the donor and acceptor plates were assembled and incubated for 4 h at room temperature with shaking at 150 rpm. […]

SK-MEL-103 = assay: Cell proliferation assay (MTS); format: cell-based; conditions: Homo sapiens, Melanoma
JMJD2A = target: T8, JMJD2A (Homo sapiens, UniProt O75164); assay: Epigenetics selectivity panel (BPS Bioscience); format: biochemical
T8 construct: purchased DiscoverX KINOMEscan (kinases); BPS Bioscience (epigenetic targets)
T8 sequence (O75164 whole entry): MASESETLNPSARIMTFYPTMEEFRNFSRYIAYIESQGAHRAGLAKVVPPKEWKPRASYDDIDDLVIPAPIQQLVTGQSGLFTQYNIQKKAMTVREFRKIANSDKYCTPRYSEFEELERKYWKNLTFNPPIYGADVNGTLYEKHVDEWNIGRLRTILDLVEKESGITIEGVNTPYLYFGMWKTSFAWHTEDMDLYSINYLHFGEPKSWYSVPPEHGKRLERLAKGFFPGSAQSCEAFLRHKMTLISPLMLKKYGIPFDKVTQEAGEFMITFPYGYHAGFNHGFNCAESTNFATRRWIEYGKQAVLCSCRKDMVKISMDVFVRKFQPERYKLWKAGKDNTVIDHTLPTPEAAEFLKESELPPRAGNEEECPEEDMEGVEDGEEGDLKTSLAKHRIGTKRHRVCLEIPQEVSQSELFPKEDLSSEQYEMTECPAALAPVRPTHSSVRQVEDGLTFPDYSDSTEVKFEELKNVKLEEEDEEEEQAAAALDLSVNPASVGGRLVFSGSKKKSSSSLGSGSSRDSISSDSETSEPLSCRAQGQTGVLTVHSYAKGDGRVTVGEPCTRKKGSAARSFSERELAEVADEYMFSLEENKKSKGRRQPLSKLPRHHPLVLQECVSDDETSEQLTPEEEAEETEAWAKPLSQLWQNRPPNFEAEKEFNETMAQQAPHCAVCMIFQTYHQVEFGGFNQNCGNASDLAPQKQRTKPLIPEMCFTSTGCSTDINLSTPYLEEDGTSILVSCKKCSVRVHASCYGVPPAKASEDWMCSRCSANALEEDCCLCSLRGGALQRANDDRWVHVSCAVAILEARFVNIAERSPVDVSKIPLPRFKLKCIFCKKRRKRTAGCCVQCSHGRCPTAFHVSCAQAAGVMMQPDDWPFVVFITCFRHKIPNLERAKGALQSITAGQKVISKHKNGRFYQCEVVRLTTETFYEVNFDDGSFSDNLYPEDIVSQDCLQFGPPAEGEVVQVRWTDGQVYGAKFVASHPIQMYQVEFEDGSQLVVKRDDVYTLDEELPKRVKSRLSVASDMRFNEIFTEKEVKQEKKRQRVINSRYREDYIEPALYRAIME

MM1.S = assay: Cell proliferation assay (MTS); format: cell-based; conditions: Homo sapiens
SUV39H2 = target: T9, SUV39H2 (Homo sapiens, UniProt Q9H5I1); assay: Epigenetics selectivity panel (BPS Bioscience); format: biochemical
T9 construct: purchased DiscoverX KINOMEscan (kinases); BPS Bioscience (epigenetic targets)
T9 sequence (Q9H5I1 whole entry): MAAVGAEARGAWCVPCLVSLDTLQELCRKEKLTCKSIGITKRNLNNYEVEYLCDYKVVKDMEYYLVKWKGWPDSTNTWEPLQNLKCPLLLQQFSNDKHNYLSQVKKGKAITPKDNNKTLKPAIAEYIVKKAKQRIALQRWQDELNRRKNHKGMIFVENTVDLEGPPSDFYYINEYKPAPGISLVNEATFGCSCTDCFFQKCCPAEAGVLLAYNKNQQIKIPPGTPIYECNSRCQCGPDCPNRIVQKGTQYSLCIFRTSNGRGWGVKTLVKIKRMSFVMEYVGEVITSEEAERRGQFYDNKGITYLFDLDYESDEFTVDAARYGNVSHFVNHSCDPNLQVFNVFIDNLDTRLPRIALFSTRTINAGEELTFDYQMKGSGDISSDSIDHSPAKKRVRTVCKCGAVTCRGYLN

JMJD2D = target: T10, JMJD2D (Homo sapiens, UniProt Q6B0I6); assay: Epigenetics selectivity panel (BPS Bioscience); format: biochemical
T10 construct: purchased DiscoverX KINOMEscan (kinases); BPS Bioscience (epigenetic targets)
T10 sequence (Q6B0I6 whole entry): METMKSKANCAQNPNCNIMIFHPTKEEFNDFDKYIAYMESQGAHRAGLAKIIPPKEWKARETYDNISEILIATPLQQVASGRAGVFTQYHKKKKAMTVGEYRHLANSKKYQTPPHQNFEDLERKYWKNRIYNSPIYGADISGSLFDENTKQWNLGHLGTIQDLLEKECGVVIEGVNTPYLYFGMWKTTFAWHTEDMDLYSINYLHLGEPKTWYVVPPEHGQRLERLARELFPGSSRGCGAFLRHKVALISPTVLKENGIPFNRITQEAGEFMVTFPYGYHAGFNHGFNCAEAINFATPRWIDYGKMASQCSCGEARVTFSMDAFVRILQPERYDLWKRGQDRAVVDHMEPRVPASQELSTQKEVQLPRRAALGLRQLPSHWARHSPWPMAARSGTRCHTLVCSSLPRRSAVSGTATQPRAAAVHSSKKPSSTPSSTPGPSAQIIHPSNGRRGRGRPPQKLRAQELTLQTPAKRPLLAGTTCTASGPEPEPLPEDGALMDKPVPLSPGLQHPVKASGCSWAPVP

Jarid1B = target: T11, Jarid1B (Homo sapiens, UniProt Q9UGL1); assay: Epigenetics selectivity panel (BPS Bioscience); format: biochemical
T11 construct: purchased DiscoverX KINOMEscan (kinases); BPS Bioscience (epigenetic targets)

H187 = assay: Cell proliferation assay (MTS); format: cell-based; conditions: Homo sapiens, NCI-H187; SCLC
A375 = assay: Cell proliferation assay (MTS); format: cell-based; conditions: Homo sapiens, A-375; Melanoma
DU145 = assay: Cell proliferation assay (MTS); format: cell-based; conditions: Homo sapiens, DU-145; Prostate

T1 sequence (O15054 whole entry): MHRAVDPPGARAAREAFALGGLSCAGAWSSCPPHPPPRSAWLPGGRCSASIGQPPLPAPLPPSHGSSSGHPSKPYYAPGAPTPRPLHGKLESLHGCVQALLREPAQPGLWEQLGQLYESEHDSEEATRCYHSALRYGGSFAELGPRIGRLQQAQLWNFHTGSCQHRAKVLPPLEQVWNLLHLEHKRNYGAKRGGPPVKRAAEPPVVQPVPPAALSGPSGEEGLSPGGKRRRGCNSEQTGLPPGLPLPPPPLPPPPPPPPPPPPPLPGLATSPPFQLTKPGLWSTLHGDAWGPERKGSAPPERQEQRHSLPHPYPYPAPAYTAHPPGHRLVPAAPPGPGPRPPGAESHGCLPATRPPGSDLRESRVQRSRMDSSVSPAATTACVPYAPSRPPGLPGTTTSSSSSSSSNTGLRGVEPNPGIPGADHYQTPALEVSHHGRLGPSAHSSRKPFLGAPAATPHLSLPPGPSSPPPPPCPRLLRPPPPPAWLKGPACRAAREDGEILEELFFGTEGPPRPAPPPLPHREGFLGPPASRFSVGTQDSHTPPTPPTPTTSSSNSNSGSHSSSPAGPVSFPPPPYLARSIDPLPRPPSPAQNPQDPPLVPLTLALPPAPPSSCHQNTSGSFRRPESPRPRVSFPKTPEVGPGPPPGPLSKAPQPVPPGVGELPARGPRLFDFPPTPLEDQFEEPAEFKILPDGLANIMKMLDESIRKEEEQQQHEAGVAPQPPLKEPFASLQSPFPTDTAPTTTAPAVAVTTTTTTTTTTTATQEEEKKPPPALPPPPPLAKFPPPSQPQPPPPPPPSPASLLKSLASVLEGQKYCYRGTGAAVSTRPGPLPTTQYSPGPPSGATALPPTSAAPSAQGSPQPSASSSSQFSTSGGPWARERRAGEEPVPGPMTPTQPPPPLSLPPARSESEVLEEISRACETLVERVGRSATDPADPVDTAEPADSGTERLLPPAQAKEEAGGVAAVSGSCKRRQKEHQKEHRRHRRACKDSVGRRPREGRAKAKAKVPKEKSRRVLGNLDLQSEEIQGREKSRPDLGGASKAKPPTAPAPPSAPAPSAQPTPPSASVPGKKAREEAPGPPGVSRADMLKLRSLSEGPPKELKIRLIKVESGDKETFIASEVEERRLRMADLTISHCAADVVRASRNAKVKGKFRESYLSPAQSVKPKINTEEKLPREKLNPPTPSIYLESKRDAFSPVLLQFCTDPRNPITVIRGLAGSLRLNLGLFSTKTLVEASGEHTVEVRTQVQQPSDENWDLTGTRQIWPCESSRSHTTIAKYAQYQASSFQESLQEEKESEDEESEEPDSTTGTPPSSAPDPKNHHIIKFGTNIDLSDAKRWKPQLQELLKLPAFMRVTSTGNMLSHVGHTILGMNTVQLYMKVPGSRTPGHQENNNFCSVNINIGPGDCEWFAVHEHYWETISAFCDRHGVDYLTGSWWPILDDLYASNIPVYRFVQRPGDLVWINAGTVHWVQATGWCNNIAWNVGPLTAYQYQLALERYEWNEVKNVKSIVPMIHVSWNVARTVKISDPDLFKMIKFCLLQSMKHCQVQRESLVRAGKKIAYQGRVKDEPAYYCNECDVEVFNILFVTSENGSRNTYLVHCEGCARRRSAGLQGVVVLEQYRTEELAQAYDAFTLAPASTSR

| SMILES | PAMPA (Pe) (PAMPA permeability) | CC50 at 72 h [1] [nM] | inhibition at 10 µM (JMJD3) [%] | GI50 (1205-LU) [nM] | inhibition at 10 µM (SETD2) [%] | P450s Inhibition: 1A2 (cytochrome P450 1A2) [%] | inhibition at 10 µM (Jarid1C) [%] | GI50 (SK-MEL-19) [nM] | inhibition at 10 µM (JMJD1A) [%] | GI50 (HL-60) [nM] | inhibition at 10 µM (Human HDAC1) [%] | GI50 (MY) [nM] | GI50 (H460) [nM] | inhibition at 10 µM (SUV39H1) [%] | GI50 (NOMO-1) [nM] | GI50 (SU8686) [nM] | solubility (Kinetic solubility) [µg/mL] | GI50 (SK-MEL-103) [nM] | inhibition at 10 µM (JMJD2A) [%] | GI50 (MM1.S) [nM] | also measured |
| --- | --- | --- | --- | --- | --- | --- | --- | --- | --- | --- | --- | --- | --- | --- | --- | --- | --- | --- | --- | --- | --- |
| COc1cc2c(NC3CCN(C)CC3)cc(-c3ccc(C)o3)nc2cc1OCCCN1CCCC1 [CM-272, 6-methoxy-2-(5-methyl-2-furyl)-N-(1-methyl-4-piperidyl)-7-(3-pyrrolidin-1-ylpropoxy)quinolin-4-amine] | 0.16 10-6 in nm/s | 1780 | 9 | 121 | 8 | < 10 | 1 | 1040 | 8 | 2900 | 0 | 816 | 1480 | 1 | 3560 | 1400 | 118 (≈ 246 µM) | 281 | 1 | 1080 | inhibition at 10 µM (SUV39H2): 4%; inhibition at 10 µM (JMJD2D): 5%; inhibition at 10 µM (Jarid1B): 5%; GI50 (H187): 1640 nM; GI50 (A375): 357 nM; GI50 (DU145): 762 nM |
| COc1cc2c(NCC3CCN(C)CC3)cc(-c3ccc(C)o3)nc2cc1OCCCN1CCCC1 [CM-579, 6-methoxy-2-(5-methyl-2-furyl)-N-[(1-methyl-4-piperidyl)methyl]-7-(3-pyrrolidin-1-ylpropoxy)quinolin-4-amine] | 0.01 10-6 in nm/s | 1300 | 3 | 20 | 0 | < 10 | 13 | 161 | 6 | > 10000 | 0 | 3950 | 4110 | 2 | > 10000 | 621 | > 144 | 29 | 30 | 3790 | inhibition at 10 µM (SUV39H2): 0%; inhibition at 10 µM (JMJD2D): 25%; inhibition at 10 µM (Jarid1B): 27%; GI50 (H187): 1970 nM; GI50 (A375): 48 nM; GI50 (DU145): 223 nM |

Source: PMC5458547, “Discovery of first-in-class reversible dual small molecule inhibitors against G9a and DNMTs in hematological malignancies” (Nature Communications, 2017)
